# Where a name gives a salt, the structure may show the parent alone.
# Target: HPK1 (MAP4K1) (Homo sapiens, UniProt Q92918)
# Experiment: FRET Assay for HPK1 (MAP4K1): one step binding assay, displacement of labeled tracer
# Settings: for inhibition at 1 µM: 1 μM compound; for inhibition at 1 µM / inhibition at 10 µM: FRET ratio 665/620, percent of control; for inhibition at 10 µM: 10 μM compound; for IC50: dose response curve, nonlinear regression
# Outline: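 Percent inhibition at 1.0 and 10.0 μM and IC50 by nonlinear regression were derived from loss of FRET signal versus control. The signal runs from Eu-anti-GST antibody (4 nM) bound to 10 nM HPK1 kinase to Alexa Fluor 647 Kinase Tracer 222 (20 nM), added after a 15-min on-ice compound pre-incubation. Binding then proceeded 1 h at room temperature in HEPES pH 7.5 buffer with 10 mM MgCl2, 1 mM EGTA, 0.01% Brij-35 and 3% DMSO.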
# HPK1 (MAP4K1), sequence (Q92918 whole entry): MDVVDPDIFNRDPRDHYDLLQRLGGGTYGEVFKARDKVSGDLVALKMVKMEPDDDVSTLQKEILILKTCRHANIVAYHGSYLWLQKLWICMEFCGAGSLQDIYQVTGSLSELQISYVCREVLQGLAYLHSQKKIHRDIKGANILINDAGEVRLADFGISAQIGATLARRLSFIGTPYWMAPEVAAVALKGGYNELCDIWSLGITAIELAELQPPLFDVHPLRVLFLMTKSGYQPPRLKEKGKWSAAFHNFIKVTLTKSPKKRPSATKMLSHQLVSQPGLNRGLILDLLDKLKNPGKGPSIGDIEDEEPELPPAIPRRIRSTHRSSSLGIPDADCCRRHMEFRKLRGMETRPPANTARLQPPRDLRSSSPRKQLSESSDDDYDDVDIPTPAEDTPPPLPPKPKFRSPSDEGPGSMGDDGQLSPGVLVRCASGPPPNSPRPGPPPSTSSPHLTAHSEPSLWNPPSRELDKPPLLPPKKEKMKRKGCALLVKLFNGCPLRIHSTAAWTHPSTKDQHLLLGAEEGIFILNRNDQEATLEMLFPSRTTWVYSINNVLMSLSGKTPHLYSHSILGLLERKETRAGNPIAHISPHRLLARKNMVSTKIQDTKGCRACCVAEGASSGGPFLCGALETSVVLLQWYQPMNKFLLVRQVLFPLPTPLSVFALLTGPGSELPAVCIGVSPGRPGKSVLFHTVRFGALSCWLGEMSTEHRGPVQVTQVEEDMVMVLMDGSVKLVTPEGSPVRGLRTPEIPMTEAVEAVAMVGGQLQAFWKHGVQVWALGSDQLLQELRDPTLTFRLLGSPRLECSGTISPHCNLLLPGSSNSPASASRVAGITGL
SMILES,inhibition at 1 µM [%],inhibition at 10 µM [%],IC50 [nM]
"C/C(Nc1cnn(C)c1)=C1/C(=O)Nc2cnc(-c3c(C)noc3C)cc21 [Example 55, (Z)-5-(3,5dimethylisoxazol-4-yl)-3-(1-((1-methyl-1H-pyrazol-4-yl)amino)ethylidene)-1H-pyrrolo[2,3-c]pyridin-2(3H)-one]",78,90,50 to 100
"COc1cccc(F)c1-c1cnc2c(c1)/C(=C(\C)Nc1cnn(C)c1)C(=O)N2 [Example 56, (Z)-5-(2-Fluoro-6-methoxyphenyl)-3-(1-((1-methyl-1H-pyrazol-4-yl)amino)ethylidene)-1H-pyrrolo[2,3-b]pyridin-2(3H)-one]",66.8,75.2,100 to 500
"C/C(Nc1cnn(C2CCOCC2)c1)=C1/C(=O)Nc2cnc(-c3cnccc3C)cc21 [Example 57, (Z)-5-(4-Methylpyridin-3-yl)-3-(1-((1-(tetrahydro-2H-pyran-4-yl)-1H-pyrazol-4-yl)amino)ethylidene)-1H-pyrrolo[2,3-c]pyridin-2(3H)-one]",80.9,94.1,< 50
"C/C(Nc1ccc(N2CCNCC2)cc1)=C1/C(=O)Nc2cnc(-c3cnccc3C)cc21 [Example 58, (Z)-5-(4-Methylpyridin-3-yl)-3-(1-((4-(piperazin-1-yl)phenyl)amino)ethylidene)-1H-pyrrolo[2,3-c]pyridin-2(3H)-one]",71,72.7,< 50
"C/C(Nc1ccc(N2CCOCC2)cc1)=C1/C(=O)Nc2cnc(-c3cnccc3C)cc21 [Example 59, (Z)-5-(4-Methylpyridin-3-yl)-3-(1-((4-morpholinophenyl)amino)ethylidene)-1H-pyrrolo[2,3-c]pyridin-2(3H)-one]",78,78.2,< 50
"COCCn1cc(N/C(C)=C2\C(=O)Nc3cnc(-c4cnccc4C)cc32)cn1 [Example 60, (Z)-3-(1-((1-(2-Methoxyethyl)-1H-pyrazol-4-yl)amino)ethylidene)-5-(4-methylpyridin-3-yl)-1H-pyrrolo[2,3-c]pyridin-2(3H)-one]",74,72.7,< 50
"C/C(Nc1cnn(CC(F)F)c1)=C1/C(=O)Nc2cnc(-c3cnccc3C)cc21 [Example 61, (Z)-3-(1-((1-(2,2-Difluoroethyl)-1H-pyrazol 4-yl)amino)ethylidene)-5-(4-methylpyridin-3-yl)-1H pyrrolo[2,3-c]pyridin-2(3H)-one]",71.6,81.3,< 50
"C/C(Nc1cnn(C)c1)=C1/C(=O)Nc2ccc(-c3cnccc3C)nc21 [Example 62, (Z)-3-(1-((1-Methyl-1H-pyrazol-4-yl)amino)ethylidene)-5-(4-methylpyridin-3-yl)-1H-pyrrolo[3,2-b]pyridin-2(3H)-one]",80.3,94.7,< 50
"C/C(Nc1ccn(C)n1)=C1/C(=O)Nc2ccc(-c3cnccc3C)nc21 [Example 63, (Z)-3-(1-((1-Methyl-1H-pyrazol-34yl)amino)ethylidene)-5-(4-methylpyridin-3-yl)-1H-pyrrolo[3,2-b]pyridin-2(3H)-one]",89.8,97.1,< 50
"C/C(Nc1cn[nH]c1)=C1/C(=O)Nc2cnc(-c3cnccc3C)cc21 [Example 64, (Z)-3-(1-((1H-Pyrazol-4-yl)amino)ethylidene)-5-(4-methylpyridin-3-yl)-1H-pyrrolo[2,3-c]pyridin-2(3H)-one]",83.3,91.2,< 50
"COc1cccc(F)c1-c1cc2c(cn1)NC(=O)/C2=C(/C)Nc1cnn(C(F)F)c1 [Example 65, (Z)-3-(1-((1-(Difluoromethyl)-1H-pyrazol-4-yl)amino)ethylidene)-5-(2-fluoro-6-methoxyphenyl)-1H-pyrrolo[2,3-c]pyridin-2(3H)-one]",79.7,75.5,50 to 100
"C/C(Nc1cnn(C(F)F)c1)=C1/C(=O)Nc2cnc(-c3cnccc3C)cc21 [Example 66, (Z)-3-(1-((1-(Difluoromethyl)-1H-pyrazol-4-yl)amino)ethylidene)-5-(4-methylpyridin-3-yl)-1H-pyrrolo[2,3-c]pyridin-2(3H)-one]",74.1,76.2,< 50
"C/C(Nc1cnn(CC2CC2)c1)=C1/C(=O)Nc2cnc(-c3cnccc3C)cc21 [Example 67, (Z)-3-(1-((1-(Cyclopropylmethyl)-1H-pyrazol-4-yl)amino)ethylidene)-5-(4-methylpyridin-3-yl)-1H-pyrrolo[2,3-c]pyridin-2(3H)-one]",74,71.4,< 50
"COc1ccncc1-c1cc2c(cn1)NC(=O)/C2=C(/C)Nc1ccn(C)n1 [Example 68, (Z)-5-(4-Methoxypyridin-3-yl)-3-(1-((1-methyl-1H-pyrazol-3-yl)amino)ethylidene)-1H-pyrrolo[2,3-c]pyridin-2(3H)-one]",77.5,75.3,< 50
"C/C(Nc1cnn(CC(F)(F)F)c1)=C1/C(=O)Nc2cnc(-c3cnccc3C)cc21 [Example 69, (Z)-5-(4-Methylpyridin-3-yl)-3-(1-((1-(2,2,2-trifluoroethyl)-1H-pyrazol-4-yl)amino)ethylidene)-1H-pyrrolo[2,3-c]pyridin-2(3H)-one]",67,65.5,–
"CC(=O)N1CCN(c2ccc(N/C(C)=C3\C(=O)Nc4cnc(-c5cnccc5C)cc43)cn2)CC1 [Example 70, (Z)-3-(1-((6-(4-Acetylpiperazin-1-yl)pyridin-3-yl)amino)ethylidene)-5-(4-methylpyridin-3-yl)-1H-pyrrolo[2,3-c]pyridin-2(3H)-one]",69.5,69.9,–
"COc1cccc(F)c1-c1cc2c(cc1C#N)NC(=O)/C2=C(/C)Nc1cnn(C)c1 [Example 71, (Z)-5-(2-Fluoro-6-methoxyphenyl)-3-(1-((1-methyl-1H-pyrazol-4-yl)amino)ethylidene)-2-oxoindoline-6-carbonitrile]",71.7,72.7,< 50
"COc1cccc(F)c1-c1cc2c(cn1)NC(=O)/C2=C(/C)NC1CCNCC1 [Example 72, (Z)-5-(2-Fluoro-6-methoxyphenyl)-3-(1-(piperidin-4-ylamino)ethylidene)-1H-pyrrolo[2,3-c]pyridin-2(3H)-one trihydrochloride]",39.8,68.6,–
"CCn1ccc(N/C(C)=C2\C(=O)Nc3cnc(-c4cnccc4C)cc32)n1 [Example 73, (Z)-3-(1-((1-Ethyl-1H-pyrazol-3-yl)amino)ethylidene)-5-(4-methylpyridin-3-yl)-1H-pyrrolo[2,3-c]pyridin-2(3H)-one]",69.6,63.9,< 50
"C/C(Nc1ccc(N2CCNCC2)cn1)=C1/C(=O)Nc2cnc(-c3cnccc3C)cc21 [Example 74, (Z)-5-(4-Methylpyridin-3-yl)-3-(1-((5-(piperazin-1-yl)pyridin-2-yl)amino)ethylidene)-1H-pyrrolo[2,3-c]pyridin-2(3H)-one]",76.3,–,< 50
"CNC(=O)c1cc(N/C(C)=C2\C(=O)Nc3cnc(-c4cnccc4C)cc32)nn1C [Example 75, (Z)-N,1-Dimethyl-3-((1-(5-(4-methylpyridin-3-yl)-2-oxo-1H-pyrrolo[2,3-c]pyridin-3(2H)-ylidene)ethyl)amino)-1H-pyrazole-5-carboxamide]",71,74,< 50
"C/C(Nc1ccn(C2COC2)n1)=C1/C(=O)Nc2cnc(-c3cnccc3C)cc21 [Example 76, (Z)-5-(4-Methylpyridin-3-yl)-3-(1-((1-(oxctan-3-yl)-1H-pyrazol-3-yl)amino)ethylidene)-1H-pyrrolo[2,3-c]pyridin-2(3H)-one]",70.3,69,< 50
"C/C(Nc1ccc(N2CCN(C3COC3)CC2)nc1)=C1/C(=O)Nc2cnc(-c3cnccc3C)cc21 [Example 77, (Z)-5-(4-Methylpyridin-3-yl)-3-(1-((6-(4-(oxetan-3-yl)piperazin-1-yl)pyridin-3-yl)amino)ethylidene)-1H-pyrrolo[2,3-c]pyridin-2(3H)-one]",73,80.3,< 50
"C/C(Nc1cnn(CC(C)(C)O)c1)=C1/C(=O)Nc2cnc(-c3cnccc3C)cc21 [Example 78, (Z)-3-(1-((1-(2-Hydroxy-2-methylpropyl)-1H-pyrazol-4-yl)amino)ethylidene)-5-(4-methylpyridin-3-yl)-1H-pyrrolo[2,3-c]pyridin-2(3H)-one]",84.2,83.1,< 50
"CCS(=O)(=O)n1cc(N/C(C)=C2\C(=O)Nc3cnc(-c4cnccc4C)cc32)cn1 [Example 80, (Z)-3-(1-((1-(Ethylsulfonyl)-1H-pyrazol-4-yl)amino)ethylidene)-5-(4-methylpyridin-3-yl)-1H-pyrrolo[2,3-c]pyridin-2(3H)-one]",75.1,78,< 50
"C/C(Nc1ccn(C(F)F)n1)=C1/C(=O)Nc2cnc(-c3cnccc3C)cc21 [Example 81, (Z)-3-(1-((1-(Difluoromethyl)-1H-pyrazol-3-yl)amino)ethylidene)-5-(4-methylpyridin-3-yl)-1H-pyrrolo[2,3-c]pyridin-2(3H)-one]",73.8,82.2,< 50

# Source: US20230009626A1 (ICHNOS SCIENCES S.A., priority 2018, published 2023)
